Test results from patent US12157730B2, “Heteroaryl derivative, method for producing same, and pharmaceutical composition comprising same as effective component” (VORONOI INC., priority 2019, dated 2024).

Target: T1, Ba/F3 cell EGFR Exon20 ins NPH (Homo sapiens, UniProt P00533, INS773NPH)
T1 construct: expressed in transfected cells; host or cells: Ba/F3
Assay: Ba/F3 cell proliferation suppression, EGFR Exon20 ins NPH
Assay type: cell-based
Details: GI50 class; Ba/F3 cell line with NPH inserted at Exon20 of EGFR; 72 hours
In short: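 Cells were seeded 24 h before dosing and then treated for 72 hours with compound at final concentrations of 0.3 nM to 50 um. Live cells were measured by CellTiter-Glo luminescence, and GI50 values were derived from growth ratio relative to control across three repeats.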

| Ba/F3 (NPH) Activity | SMILES |
| --- | --- |
| A (GI50 < 50 nM) | C=CC(=O)Nc1cc(Nc2cc(N3OCC[C@@H]3c3cccc(C)c3F)ncn2)c(OC)cc1N1CCC(N2CCN(C3CCC3)CC2)CC1 [Example 78, N-(2-(4-(4-cyclobutylpiperazine-1-yl)piperidine-1-yl)-5-((6-((R)-3-(2-fluoro-3-methylphenyl)isoxazolidine-2-yl)pyrimidine-4-yl)amino)-4-methoxyphenyl) acrylamide] |
| B (50 nM ≤ GI50 < 500 nM) | C=CC(=O)Nc1cc(Nc2cc(N3OCC[C@@H]3Cc3ccccc3)ncn2)c(OC)cc1N(C)CCOC [compound 953, N-(5-((6-((S)-3-benzylisoxazolidine-2-yl)pyrimidine-4-yl)amino)-4-methoxy-2-((2-methoxyethyl) (methyl)amino)phenyl) acrylamide] |
| A (GI50 < 50 nM) | C=CC(=O)Nc1cc(Nc2cc(N3OCC[C@@H]3Cc3ccccc3)ncn2)c(OC)cc1N1CCN(C(C)=O)CC1 [compound 948, N-(2-(4-acetylpiperazine-1-yl)-5-((6-((S)-3-benzylisoxazolidine-2-yl)pyrimidine-4-yl)amino)-4-methoxyphenyl) acrylamide] |
| A (GI50 < 50 nM) | C=CC(=O)Nc1cc(Nc2cc(N3OCC[C@@H]3Cc3cccc(F)c3Cl)ncn2)c(OC)cc1N1CCC(N2CCN(C3CC3)[C@@H](C)C2)CC1 [compound 1037, N-(5-((6-((S)-3-(2-chloro-3-fluorobenzyl)isoxazolidine-2-yl)pyrimidine-4-yl)amino)-2-(4-((S)-4-cyclopropyl-3-methylpiperazine-1-yl)piperidine-1-yl)-4-methoxyphenyl) acrylamide] |
| B (50 nM ≤ GI50 < 500 nM) | C=CC(=O)Nc1cc(Nc2cc(N3OCC[C@@H]3c3ccc4ccccc4c3)ncn2)c(OC)cc1N1CCC(N2CCOCC2)CC1 [compound 555, N-(4-methoxy-2-(4-morpholinopiperidine-1-yl)-5-((6-((R)-3-(naphthalene-2-yl)isoxazolidine-2-yl)pyrimidine-4-yl)amino)phenyl)acrylamide] |
| A (GI50 < 50 nM) | C=CC(=O)Nc1cc(Nc2cc(N3OCC[C@@H]3c3c(F)ccc(F)c3Cl)ncn2)c(OC)cc1N1CCC(N2CCN(C3CC3)CC2)CC1 [compound 933, N-(5-((6-((R)-3-(2-chloro-3,6-difluorophenyl)isoxazolidine-2-yl)pyrimidine-4-yl)amino)-2-(4-(4-cyclopropylpiperazine-1-yl)piperidine-1-yl)-4-methoxyphenyl) acrylamide] |
| B (50 nM ≤ GI50 < 500 nM) | C=CC(=O)Nc1cc(Nc2cc(N3OCC[C@H]3Cc3cccnc3)ncn2)c(OC)cc1N1CCC(N2CCN(C3CC3)CC2)CC1 [compound 988, N-(2-(4-(4-cyclopropylpiperazine-1-yl)piperidine-1-yl)-4-methoxy-5-((6-((R)-3-(pyridine-3-ylmethyl)isoxazolidine-2-yl)pyrimidine-4-yl)amino)phenyl) acrylamide] |

Second part, the molecule before the results:

| SMILES | Ba/F3 (NPH) Activity |
| --- | --- |
| C=CC(=O)Nc1cc(Nc2cc(N3OCC[C@@H]3c3ccc(F)c(Cl)c3F)ncn2)c(OC)cc1N1CCC(N2CCOCC2)CC1 [compound 606, N-(5-((6-((R)-3-(3-chloro-2,4-difluorophenyl)isoxazolidine-2-yl)pyrimidine-4-yl)amino)-4-methoxy-2-(4-morpholinopiperidine-1-yl)phenyl)acrylamide] | A (GI50 < 50 nM) |
| C=CC(=O)Nc1cc(Nc2cc(N3OCC[C@@H]3c3cccc(C)c3F)ncn2)c(OC)cc1N1CC[C@@H](N(C)C)C1 [compound 860, N-(2-((R)-3-(dimethylamino)pyrolidine-1-yl)-5-((6-((R)-3-(2-fluoro-3-methylphenyl)isoxazolidine-2-yl)pyrimidine-4-yl)amino)-4-methoxyphenyl) acrylamide] | A (GI50 < 50 nM) |
| C=CC(=O)Nc1cc(Nc2cc(N3OCC[C@@H]3c3cccc(F)c3Cl)ncn2)c(OC)cc1N1CCC(N2CCN(C3CC3)C[C@@H]2C)CC1 [Example 144, N-(5-((6-((R)-3-(2-chloro-3-fluorophenyl)isoxazolidine-2-yl)pyrimidine-4-yl)amino)-2-(4-((S)-4-cyclopropyl-2-methylpiperazine-1-yl)piperidine-1-yl)-4-methoxyphenyl) acrylamide] | A (GI50 < 50 nM) |
| C=CC(=O)Nc1cc(Nc2cc(N3OCC[C@@H]3Cc3cccc(Cl)c3Cl)ncn2)c(OC)cc1N1CCN(C)CC1 [compound 983, N-(5-((6-((S)-3-(2,3-dichlorobenzyl)isoxazolidine-2-yl)pyrimidine-4-yl)amino)-4-methoxy-2-(4-methylpiperazine-1-yl)phenyl)acrylamide] | A (GI50 < 50 nM) |
| C=CC(=O)Nc1cc(Nc2cc(N3OCC[C@@H]3c3cccc(C#N)c3)ncn2)c(OC)cc1N1CCC(N2C[C@@H]3C[C@H]2CO3)CC1 [compound 493, N-(2-(4-((1S,4S)-2-oxa-5-azabicyclo[2.2.1]heptane-5-yl)piperidine-1-yl)-5-((6-((R)-3-(3-cyanophenyl)isoxazolidine-2-yl)pyrimidine-4-yl)amino)-4-methoxyphenyl) acrylamide] | B (50 nM ≤ GI50 < 500 nM) |
| C=CC(=O)Nc1cc(Nc2cc(N3OCC[C@@H]3c3ccc(Cl)cc3F)ncn2)c(OC)cc1N1CCC(N2C[C@@H]3C[C@H]2CO3)CC1 [compound 373, N-(2-(4-((1S,4S)-2-oxa-5-azabicyclo[2.2.1]heptane-5-yl)piperidine-1-yl)-5-((6-((R)-3-(4-chloro-2-fluorophenyl)isoxazolidine-2-yl)pyrimidine-4-yl)amino)-4-methoxyphenyl) acrylamide] | A (GI50 < 50 nM) |
| C=CC(=O)Nc1cc(Nc2cc(N3OCCC3(C)c3ccccc3)ncn2)c(OC)cc1N1CCC(N2CCN(CC)CC2)CC1 (centres unmarked) [Example 261, N-(2-(4-(4-ethylpiperazine-1-yl)piperidine-1-yl)-4-methoxy-5-((6-(3-methyl-3-phenylisoxazolidine-2-yl)pyrimidine-4-yl)amino)phenyl) acrylamide] | C (500 nM ≤ GI50 < 5000 nM) |
| C=CC(=O)Nc1cc(Nc2cc(N3OCC[C@@H]3c3cccc4ccccc34)ncn2)c(OC)cc1N1CCN(C2COC2)CC1 [compound 439, N-(4-methoxy-5-((6-((R)-3-(naphthalene-1-yl)isoxazolidine-2-yl)pyrimidine-4-yl)amino)-2-(4-(oxetane-3-yl)piperazine-1-yl)phenyl) acrylamide] | A (GI50 < 50 nM) |
| C=CC(=O)Nc1cc(Nc2cc(N3OCC[C@@H]3c3cccc(Cl)c3Cl)ncn2)c(OC)cc1N1CCN(C2CC2)CC1 [compound 518, N-(2-(4-cyclopropylpiperazine-1-yl)-5-((6-((R)-3-(2,3-dichlorophenyl)isoxazolidine-2-yl)pyrimidine-4-yl)amino)-4-methoxyphenyl) acrylamide] | A (GI50 < 50 nM) |
| C=CC(=O)Nc1cc(Nc2cc(N3OCC[C@@H]3c3ccc(Cl)c(Cl)c3)ncn2)c(OC)cc1N1CCN(CC)CC1 [compound 672, N-(5-((6-((R)-3-(3,4-dichlorophenyl)isoxazolidine-2-yl)pyrimidine-4-yl)amino)-2-(4-ethylpiperazine-1-yl)-4-methoxyphenyl) acrylamide] | A (GI50 < 50 nM) |
| C=CC(=O)Nc1cc(Nc2cc(N3OCC[C@@H]3c3cc(F)cc(F)c3)ncn2)c(OC)cc1N1CCC(N2CCN(C3CC3)C[C@@H]2C)CC1 [Example 111, N-(2-(4-((S)-4-cyclopropyl-2-methylpiperazine-1-yl)piperidine-1-yl)-5-((6-((R)-3-(3,5-difluorophenyl)isoxazolidine-2-yl)pyrimidine-4-yl)amino)-4-methoxyphenyl) acrylamide] | A (GI50 < 50 nM) |
| C=CC(=O)Nc1cc(Nc2cc(N3OCC[C@@H]3c3ccc(Cl)cc3F)ncn2)c(OC)cc1N1CCC(N2CCC(N(C)C)CC2)CC1 [compound 410, N-(5-((6-((R)-3-(4-chloro-2-fluorophenyl)isoxazolidine-2-yl)pyrimidine-4-yl)amino)-2-(4-(dimethylamino)-[1,4'-bipiperidine]-1'-yl)-4-methoxyphenyl) acrylamide] | B (50 nM ≤ GI50 < 500 nM) |
| C=CC(=O)Nc1cc(Nc2cc(N3OCC[C@@H]3c3cccc(F)c3)ncn2)c(OC)cc1N1CCC(N2CCN(C3CC3)CC2)CC1 [Example 64, N-(2-(4-(4-cyclopropylpiperazine-1-yl)piperidine-1-yl)-5-((6-((R)-3-(3-fluorophenyl)isoxazolidine-2-yl)pyrimidine-4-yl)amino)-4-methoxyphenyl) acrylamide] | A (GI50 < 50 nM) |
| C=CC(=O)Nc1cc(Nc2cc(N3OCC[C@@H]3c3ccc(F)cc3)ncn2)c(OC)cc1N1CCC(N2CCN(C3CC3)CC2)CC1 [Example 66, N-(2-(4-(4-cyclopropylpiperazine-1-yl)piperidine-1-yl)-5-((6-((R)-3-(4-fluorophenyl)isoxazolidine-2-yl)pyrimidine-4-yl)amino)-4-methoxyphenyl) acrylamide] | A (GI50 < 50 nM) |
| C=CC(=O)Nc1cc(Nc2cc(N3OCC[C@@H]3c3ccc(Cl)c(F)c3)ncn2)c(OC)cc1N1CCC(N2C[C@H]3C[C@@H]2CO3)CC1 [Example 256, N-(2-(4-((1R,4R)-2-oxa-5-azabicyclo[2.2.1]heptane-5-yl)piperidine-1-yl)-5-((6-((R)-3-(4-chloro-3-fluorophenyl)isoxazolidine-2-yl)pyrimidine-4-yl)amino)-4-methoxyphenyl) acrylamide] | A (GI50 < 50 nM) |
| C#Cc1cccc([C@H]2CCON2c2cc(Nc3cc(NC(=O)C=C)c(N4CCC(N5CCN(C6CC6)CC5)CC4)cc3OC)ncn2)c1 [Example 165, N-(2-(4-(4-cyclopropylpiperazine-1-yl)piperidine-1-yl)-5-((6-((R)-3-(3-ethynylphenyl)isoxazolidine-2-yl)pyrimidine-4-yl)amino)-4-methoxyphenyl) acrylamide] | A (GI50 < 50 nM) |
